The nature of one data set: log P (HPLC/MS data of the preparation examples). To be noted: HPLC (LC-MS) method [b]: pH 2.7, 0.1% formic acid in water and acetonitrile, linear gradient 10% to 95% acetonitrile; EEC directive 79/831 Annex V.A8.
Take `CC(C)C(=O)Nc1cccc(CON=C(c2cccs2)c2nccn2C)n1` [Example 415]: the log p was 1.65^[b].

Take `Cn1ncnc1C(=NOCc1cccc(N2C(=O)c3ccccc3C2=O)n1)c1cccs1` [Example 416]: the log p was 2.64^[b].

Regarding `Cn1cncc1C(=NOCc1cccc(N2C(=O)c3ccccc3C2=O)n1)c1ccsc1` [Example 417], the log p was 1.73^[b].

For the molecule `Cn1cncc1C(=NOCc1cccc(N2C(=O)c3ccccc3C2=O)n1)c1cccs1` [Example 420], the log p is 1.66^[b].

`Cn1cncc1C(=NOCc1csc(N)n1)c1cccs1` [Example 421]: the log p is 0.22^[b].

In the case of `Cn1cncc1C(=NOCc1csc(N)n1)c1ccsc1` [Example 422], the log p is 0.45^[b].

For the molecule `Cn1cncc1C(=NOCc1cccc(N)n1)c1cccs1` [Example 423], the log p was 0.08^[b].

With `CCCCCOC(=O)Nc1cccc(CON=C(c2ccsc2)c2cncn2C)n1` [Example 425], the log p is 2.82^[b].

`CCCCCC(=O)Nc1nc(CON=C(c2ccsc2)c2cncn2C)cs1` [Example 428]: the log p was 1.99^[b].

`CCCCCC(=O)Nc1nc(CON=C(c2cccs2)c2cncn2C)cs1` [Example 429]: the log p is 1.93^[b].

Regarding `Cn1cncc1C(=NOCc1cccc(NC(=O)COc2ccccc2)n1)c1cccs1` [Example 431], the log p is 1.94^[b].

Regarding `CC(C)C(=O)Nc1nc(CON=C(c2cccs2)c2cncn2C)cs1` [Example 433], the log p is 1.53^[b].

Take `Cn1cncc1C(=NOCc1csc(NC(=O)COc2ccccc2)n1)c1cccs1` [Example 434]: the log p was 1.87^[b].

On to `Cn1cncc1C(=NOCc1cccc(NC(=O)COc2ccccc2)n1)c1ccsc1` [Example 435], for which the log p is 1.96^[b].

As to `Cn1cncc1C(=NOCc1cccc(NC(=O)C(C)(C)C)n1)c1ccsc1` [Example 436], the log p is 1.7^[b].

Turning to `CCCC(=O)Nc1cccc(CON=C(c2ccsc2)c2cncn2C)n1` [Example 437], the log p was 1.52^[b].

Consider `CCCCCCC(=O)Nc1cccc(CON=C(c2ccsc2)c2cncn2C)n1` [Example 438], for which the log p is 2.25^[b].

As to `CC(C)C(=O)Nc1cccc(CON=C(c2ccsc2)c2cncn2C)n1` [Example 439], the log p was 1.5^[b].

Turning to `CCCCC(=O)Nc1cccc(CON=C(c2ccsc2)c2cncn2C)n1` [Example 440], the log p is 1.75^[b].

With `CCCCCCCCCC(=O)Nc1cccc(CON=C(c2ccsc2)c2cncn2C)n1` [Example 441], the log p was 3.02^[b].

On to `CC(C)CC(=O)Nc1cccc(CON=C(c2ccsc2)c2cncn2C)n1` [Example 442], for which the log p is 1.7^[b].

In the case of `Cn1cncc1C(=NOCc1cccc(NC(=O)C(C)(C)C)n1)c1cccs1` [Example 443], the log p is 1.7^[b].

Regarding `CCCC(=O)Nc1cccc(CON=C(c2cccs2)c2cncn2C)n1` [Example 445], the log p was 1.5^[b].

As to `CCCCCCCCCC(=O)Nc1cccc(CON=C(c2cccs2)c2cncn2C)n1` [Example 448], the log p is 2.98^[b].

Take `Cn1cncc1C(=NOCc1csc(NC(=O)C(C)(C)C)n1)c1cccs1` [Example 449]: the log p was 1.67^[b].

The data set is the same for the next values; noted with them: LC-MS, method [b]: pH 2.7 with 0.1% formic acid in water and acetonitrile, linear gradient 10% to 95% acetonitrile.
As to `Cn1ncnc1C(=NOCc1nccc(NC(=O)CCc2ccccc2)n1)c1cccs1` [Example 409], the log p was 2.9^[b].

As to `CC(C)CC(=O)Nc1ccnc(CON=C(c2cccs2)c2ncnn2C)n1` [Example 410], the log p is 2.56^[b].

With `CCCCCOC(=O)Nc1cccc(CON=C(c2cccs2)c2nccn2C)n1` [Example 411], the log p is 2.71^[b].

Turning to `CC(C)CC(=O)Nc1cccc(CON=C(c2cccs2)c2nccn2C)n1` [Example 412], the log p was 1.91^[b].

Turning to `Cn1ccnc1C(=NOCc1cccc(NC(=O)C(C)(C)C)n1)c1cccs1` [Example 413], the log p is 1.78^[b].

On to `Cn1ccnc1C(=NOCc1cccc(NC(=O)Cc2ccccc2)n1)c1cccs1` [Example 414], for which the log p was 2.05^[b].

Source of the values: patent publication US8981111B2 (priority 2008, dated 2015).
